Measurements: BindingDB's records for patent US20250263395 (Monte Rosa Therapeutics, 2025)

These compounds were tested against Protein cereblon (Homo sapiens, UniProt Q96SW2) (assay: HTRF assay).
Method: Biochemical assays were conducted in Greiner white 384 well HiBase plates (Cat. No 784075-25) in 10 μL total volume. A one pot detection solution of CRBN-DDB1 (2.5 nM), Anti-His Terbium Cryptate Gold (1×, PerkinElmer Cat. #: 61HI2TLB), and Cy5-Thalidomide (100 nM, Tenova Cat.: T52461) was prepared in 20 mM HEPES, 20 mM NaCl, 0.2 mM TCEP, 0.2 mM EDTA, and 0.005% Tween20 was dispensed to each assay plate. Compounds were stored in dry, ambient temperatures at 10 mM. A 10-point, 1:3 dilution series was prepared from 10 mM stock concentrations in Echo-compatible LDV plates. 10 nL of each compound dilution series was dispensed into assays wells using an Echo 650 (Labcyte inc. USA). 10 nL of 10 mM Lenalidomide was transferred into the active-control wells for the assay and 10 nL of DMSO was transferred into the neutral-control wells. The assay was then allowed to incubate for 30 min at ambient temperature after transferring compound. Plate measurements were taken on a Pherastar FSX (BMG Labtech, Germany) using the HTRF Red filter (Ex. 337 nm, em1: 620 nm, em2: 665 nm) (Flashes: 50, Integration time: 60-400 us, Z-height: 10 mm, Ratio-multiplier: 10,000).

Chain of Protein cereblon (Q96SW2 whole entry): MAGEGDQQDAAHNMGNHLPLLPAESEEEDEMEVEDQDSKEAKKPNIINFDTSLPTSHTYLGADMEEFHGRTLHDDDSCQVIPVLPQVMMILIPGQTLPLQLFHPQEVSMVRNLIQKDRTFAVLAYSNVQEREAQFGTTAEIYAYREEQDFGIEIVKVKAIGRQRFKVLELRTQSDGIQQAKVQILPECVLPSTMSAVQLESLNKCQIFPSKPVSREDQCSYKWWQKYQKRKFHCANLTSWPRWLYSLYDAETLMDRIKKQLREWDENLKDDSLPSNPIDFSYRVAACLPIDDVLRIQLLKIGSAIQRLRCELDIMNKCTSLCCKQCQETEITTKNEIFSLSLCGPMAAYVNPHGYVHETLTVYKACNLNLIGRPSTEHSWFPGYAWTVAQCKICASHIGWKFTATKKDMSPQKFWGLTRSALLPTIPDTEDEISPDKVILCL

Ki, < 0.1 µM:
O=C1CCC(c2c(F)cc(N3CC(NC(=O)OCC4CC5(CCC5)C4)C3)cc2F)C(=O)N1 (stereo not given) [US20250263395, Compound 1]
Cc1ccnc(N2CC(OC(=O)NC3CN(c4cc(F)c(C5CCC(=O)NC5=O)c(F)c4)C3)C2)c1 (stereo not given) [US20250263395, Compound 6]
Cc1cccc(N(C)C(=O)N2CC(OC(=O)NC3CN(c4cc(F)c(C5CCC(=O)NC5=O)c(F)c4)C3)C2)c1 (stereo not given) [US20250263395, Compound 10]
O=C1CCC(c2c(F)cc(N3CC(NC(=O)OC4CN(C(=O)N5CCCC5)C4)C3)cc2F)C(=O)N1 (stereo not given) [US20250263395, Compound 32]
Cc1ccc(C)c(N(C)C(=O)C23CC(OC(=O)NC4CN(c5cc(F)c(C6CCC(=O)NC6=O)c(F)c5)C4)(C2)C3)c1 (stereo not given) [US20250263395, Compound 111]
